Consider 39 compounds from patent US20230339937A1, “CONDENSED RING COMPOUNDS THAT INHIBIT H-PGDS” (SATO PHARMACEUTICAL CO., LTD., priority 2020, published 2023).

This test concerns the target T1, Recombinant human H-PGDS (Homo sapiens, UniProt O60760).
T1 construct: made in house; host or cells: E. coli
The experiment in a line: H-PGDS inhibitory activity (prostaglandin D2 production from prostaglandin H2, measured by LC-MS/MS). It counts as biochemical. The following applies: recombinant human H-PGDS 1.0 nM expressed in E. coli; prostaglandin H2 25 μM; preincubated 15 minutes on ice, reacted on ice for 1 minute; concentration that inhibits prostaglandin D2 production by 50%. The method, boiled down: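 PGD2 formed from 25 µM prostaglandin H2 during a 1-min on-ice reaction was measured by LC-MS/MS after an FeCl2/citric acid stop. The enzyme was 1.0 nM E. coli-expressed human H-PGDS in Tris-HCl pH 8.0 buffer with MgCl2, reduced glutathione and γ-globulin, preincubated with compound for 15 min on ice. Production was normalised to DMSO controls minus the no-enzyme background.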

Molecules are shown by their SMILES. Structures can show the parent of a compound that is named as a salt.

T1 sequence (O60760 whole entry): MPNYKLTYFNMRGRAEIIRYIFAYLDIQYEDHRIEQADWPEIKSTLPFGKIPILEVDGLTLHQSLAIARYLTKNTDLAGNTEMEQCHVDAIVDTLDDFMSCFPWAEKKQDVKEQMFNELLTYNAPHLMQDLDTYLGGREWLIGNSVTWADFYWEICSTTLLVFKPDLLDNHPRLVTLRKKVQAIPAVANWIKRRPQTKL

Broadly, the IC50 is the midpoint of a concentration-inhibition curve. Regarding `O=C(NC1CCN(c2ncccn2)CC1)c1ccc(-c2nccc3occc23)cc1` [Example 143, 4-(furo[3,2-c]pyridin-4-yl)-N-[1-(pyrimidin-2-yl)piperidin-4-yl]benzamide], the IC50 amounted to 0.78 nM. Under `O=C(NCc1ccccn1)c1ccc(-c2nccc3[nH]ccc23)cc1` [Example 9] stands 1.5 nM. Under `O=C(N[C@H]1CCN(c2cccnn2)C1)c1ccc(-c2nccc3occc23)cc1` [Example 230, (S)-4-(furo[3,2-c]pyridin-4-yl)-N-[1-(pyridazin-3-yl)pyrrolidin-3-yl]benzamide] stands 1.2 nM. For `O=C(N[C@H]1CC[C@H](NCC(F)F)CC1)c1ccc(-c2nccc3occc23)c(F)c1` [Example 326, N-{trans-4-[(2,2-difluoroethyl)amino]cyclohexyl}-3-fluoro-4-(furo[3,2-c]pyridin-4-yl)benzamide], the IC50 is 1.3 nM.

As for `O=C(NCc1ccc(Cl)cc1)c1ccc(-c2nccc3occc23)cc1` [Example 70, N-(4-chlorobenzyl)-4-(furo[3,2-c]pyridin-4-yl)benzamide], the IC50 was found to be 12 nM. Under `O=C(N[C@@H]1CCC[C@H](O)CC1)c1ccc(-c2nccc3occc23)cc1` (relative stereo) [Example 293, 4-(furo[3,2-c]pyridin-4-yl)-N-(cis-4-hydroxycycloheptyl)benzamide] stands 1.6 nM; under `O=C(N[C@H]1CC[C@H](C(O)C(F)(F)F)CC1)c1ccc(-c2nccc3occc23)cc1` (stereo partly drawn) [Example 309, 4-(furo[3,2-c]pyridin-4-yl)-N-[trans-4-(2,2,2-trifluoro-1-hydroxyethyl)cyclohexyl]benzamide], 1.9 nM; under `O=C(NCCCCCCO)c1ccc(-c2nccc3[nH]ccc23)cc1` [Example 17, N-(6-hydroxyhexyl)-4-(1H-pyrrolo[3,2-c]pyridin-4-yl)benzamide], 0.85 nM. Under `Cc1cc(CNC(=O)c2ccc(-c3nccc4[nH]ccc34)cc2)[nH]n1` [Example 49, N-[(3-methyl-1H-pyrazol-5-yl)methyl]-4-(1H-pyrrolo[3,2-c]pyridin-4-yl)benzamide] stands 1.2 nM; under `O=C(Nc1ccc(F)cc1)c1ccc(-c2nccc3occc23)cc1` [Example 111, N-(4-fluorophenyl)-4-(furo[3,2-c]pyridin-4-yl)benzamide], 5.5 nM.

As for `O=C(N[C@H]1CCN(c2ncc(F)cn2)C1)c1ccc(-c2nccc3occc23)cc1` [Example 194, (S)-N-[1-(5-fluoropyrimidin-2-yl)pyrrolidin-3-yl]-4-(furo[3,2-c]pyridin-4-yl)benzamide], the IC50 was determined as 0.94 nM. For the compound `CO[C@H]1CCC[C@@H](NC(=O)c2ccc(-c3nccc4occc34)cc2)C1` (relative stereo) [Example 275, 4-(furo[3,2-c]pyridin-4-yl)-N-(cis-3-methoxycyclohexyl)benzamide], the IC50 turned out to be 1.8 nM.

Regarding `CC(C)(O)CNC(=O)c1ccc(-c2nccc3occc23)cc1` [Example 92, 4-(furo[3,2-c]pyridin-4-yl)-N-(2-hydroxy-2-methylpropyl) benzamide], the IC50 amounted to 22 nM. Consider `Cc1cnc(-c2ccc(C(=O)N[C@H]3CC[C@H](C(C)(C)O)CC3)cc2)c2cc[nH]c12` [Example 339, N-[trans-4-(2-hydroxypropan-2-yl)cyclohexyl]-4-(7-methyl-1H-pyrrolo[3,2-c]pyridin-4-yl)benzamide], for which the IC50 worked out at 1.4 nM. As for `O=C(NC1CN(c2ncccn2)C1)c1ccc(-c2nccc3occc23)cc1` [Example 217, 4-(furo[3,2-c]pyridin-4-yl)-N-[1-(pyrimidin-2-yl)azetidin-3-yl]benzamide], the IC50 came out at 2.4 nM. Under `O=C(N[C@@H]1COCCN(c2ncccn2)C1)c1ccc(-c2nccc3occc23)cc1` [Example 224, (S)-4-(furo[3,2-c]pyridin-4-yl)-N-[4-(pyrimidin-2-yl)-1,4-oxazepan-6-yl]benzamide] stands 1.8 nM; under `CC(C)(O)c1cnc(N2CCC(NC(=O)c3ccc(-c4nccc5occc45)cc3)CC2)nc1` [Example 185, 4-(furo[3,2-c]pyridin-4-yl)-N-{1-[5-(2-hydroxypropan-2-yl)pyrimidin-2-yl]piperidin-4-yl}benzamide], 1.7 nM; under `O=C(N[C@H]1CC[C@H](O)CC1)c1ccc(-c2nccc3occc23)cc1` [Example 256, 4-(furo[3,2-c]pyridin-4-yl)-N-(trans-4-hydroxycyclohexyl)benzamide], 2.6 nM. Under `O=C(NCCCCCCO)c1ccc(-c2nccc3occc23)cc1` [Example 90, 4-(furo[3,2-c]pyridin-4-yl)-N-(6-hydroxyhexyl) benzamide] stands 15 nM. Turning to `O=C(N[C@H]1COCCN(c2ncccn2)C1)c1ccc(-c2nccc3occc23)cc1` [Example 225, (R)-4-(furo[3,2-c]pyridin-4-yl)-N-[4-(pyrimidin-2-yl)-1,4-oxazepan-6-yl]benzamide], the IC50 was 6.5 nM. Consider `Cn1nccc1CNC(=O)c1ccc(-c2nccc3[nH]ccc23)cc1` [Example 37, N-[(1-methyl-1H-pyrazol-5-yl)methyl]-4-(1H-pyrrolo[3,2-c]pyridin-4-yl)benzamide], for which the IC50 is 0.86 nM. For the compound `O=C(NCc1ccc(Cl)cc1)c1ccc(-c2nccc3[nH]ccc23)cc1` [Example 58, N-(4-chlorobenzyl)-4-(1H-pyrrolo[3,2-c]pyridin-4-yl)benzamide], the IC50 amounted to 0.64 nM. Under `O=C(NC1CCN(c2ccc(F)cn2)CC1)c1ccc(-c2nccc3occc23)cc1` [Example 149, N-[1-(5-fluoropyridin-2-yl)piperidin-4-yl]-4-(furo[3,2-c]pyridin-4-yl)benzamide] stands 1.8 nM. Under `CC(C)(O)[C@H]1CC[C@H](NC(=O)c2ccc(-c3nccc4occc34)cc2)CC1` [Example 124, 4-(furo[3,2-c]pyridin-4-yl)-N-[trans-4-(2-hydroxypropan-2-yl)cyclohexyl]benzamide] stands 1.8 nM. In the case of `NC(=O)c1cc(N2CCC(NC(=O)c3ccc(-c4nccc5occc45)cc3)CC2)ccn1` [Example 176, 4-{4-[4-(furo[3,2-c]pyridin-4-yl)benzamide]piperidin-1-yl}picolinamide], the IC50 stood at 1.2 nM. Under `NC(=O)c1cnc(N2CCC(NC(=O)c3ccc(-c4nccc5occc45)cc3)CC2)nc1` [Example 174, 2-{4-[4-(furo[3,2-c]pyridin-4-yl)benzamide]piperidin-1-yl}pyrimidine-5-carboxamide] stands 1.1 nM. For the compound `CCc1cnc(-c2ccc(C(=O)N[C@H]3CC[C@H](C(C)(C)O)CC3)cc2)c2ccoc12` [Example 138, 4-(7-ethylfuro[3,2-c]pyridin-4-yl)-N-[trans-4-(2-hydroxypropan-2-yl)cyclohexyl]benzamide], the IC50 was determined as 15 nM. Under `O=C(NC1CCN(c2cccc(=O)[nH]2)CC1)c1ccc(-c2nccc3occc23)cc1` [Example 172, 4-(furo[3,2-c]pyridin-4-yl)-N-[1-(6-oxo-1,6-dihydropyridin-2-yl)piperidin-4-yl]benzamide] stands 2.6 nM; under `O=C(NC1CCN(C2COC2)CC1)c1ccc(-c2nccc3occc23)cc1` [Example 236, 4-(furo[3,2-c]pyridin-4-yl)-N-[1-(oxetan-3-yl)piperidin-4-yl]benzamide], 1.1 nM; under `O=C(N[C@H]1CCN(c2cccc(=O)[nH]2)C1)c1ccc(-c2nccc3occc23)cc1` [Example 233, (S)-4-(furo[3,2-c]pyridin-4-yl)-N-[1-(6-oxo-1,6-dihydropyridin-2-yl)pyrrolidin-3-yl]benzamide], 7.5 nM. As to `CC(C)N(CCNC(=O)c1ccc(-c2nccc3sccc23)cc1)C(C)C` [Example 62, N-[2-(diisopropylamino)ethyl]-4-(thieno[3,2-c]pyridin-4-yl)benzamide dihydrochloride], the IC50 came to 86 nM. Under `O=C(NCC1CCCO1)c1ccc(-c2nccc3occc23)cc1` (stereo not drawn) [Example 94, 4-(furo[3,2-c]pyridin-4-yl)-N-[(tetrahydro-furan-2-yl)methyl] benzamide] stands 12 nM; under `O=C(N[C@H]1CC[C@@](O)(C(F)(F)F)CC1)c1ccc(-c2nccc3occc23)cc1` [Example 264, 4-(furo[3,2-c]pyridin-4-yl)-N-[trans-4-hydroxy-4-(trifluoromethyl)cyclohexyl]benzamide], 3.5 nM.

Regarding `COCCN[C@H]1CC[C@H](NC(=O)c2ccc(-c3nccc4occc34)cc2)CC1` [Example 301, 4-(furo[3,2-c]pyridin-4-yl)-N-{trans-4-[(2-methoxyethyl)amino]cyclohexyl}benzamide], the IC50 was found to be 11 nM. In the case of `O=C(NCCCO)c1ccc(-c2nccc3[nH]ccc23)cc1` [Example 30, N-(3-hydroxypropyl)-4-(1H-pyrrolo[3,2-c]pyridin-4-yl)benzamide], the IC50 turned out to be 0.65 nM. `COc1ccc(CN2CCC(NC(=O)c3ccc(-c4nccc5occc45)cc3)CC2)cc1Cl` [Example 244, N-[1-(3-chloro-4-methoxybenzyl)piperidin-4-yl]-4-(furo[3,2-c]pyridin-4-yl)benzamide]: the IC50 worked out at 4 nM.

Take `O=C(NCc1ccncc1)c1ccc(-c2nccc3sccc23)cc1` [Example 60, N-(pyridin-4-ylmethyl)-4-(thieno[3,2-c]pyridin-4-yl)benzamide]: the IC50 amounted to 15 nM. Under `N#Cc1cc(N2CCC(NC(=O)c3ccc(-c4nccc5occc45)cc3)CC2)ccn1` [Example 166, N-[1-(2-cyanopyridin-4-yl)piperidin-4-yl]-4-(furo[3,2-c]pyridin-4-yl)benzamide] stands 1 nM; under `O=C(N[C@@H]1CC[C@@H](CO)OC1)c1ccc(-c2nccc3occc23)cc1` [Example 211, 4-(furo[3,2-c]pyridin-4-yl)-N-[(3R,6S)-6-(hydroxymethyl)tetrahydro-2 H-pyran-3-yl]benzamide], 2.5 nM.
